GI50 and TGI data for seven compounds are collected here from PubChem BioAssay (NCI).

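Exposure lasted 48 hours, with cells grown in 96-well plates and compounds tested at five concentrations. GI50 = concentration required for 50% inhibition of growth. TGI denotes the concentration required for complete inhibition of growth.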

What all share (experiment): inhibition of tumour cell growth, NCI panel, 48 h
Assay [1] deals with HCT-15 colon.
Assay [2] relates to M14 melanoma.
The subject of assay [3] is MALME-3M melanoma.
Assay [4] has as its system UO-31 renal.
Assay [5] has as its system U251 CNS.
Assay [6] concerns K-562 leukemia.
Assay [7] deals with PC-3 prostate.
For assay [8], the system named is ACHN renal.
Assay [9] deals with UACC-62 melanoma.
Assay [10] has as its system OVCAR-5 ovarian.

With `CCNCCS(=O)(=O)NC[C@@]1(c2ccccc2)SC(NC(=O)C(C)(C)C)=NN1C(=O)C(C)(C)C`, the GI50 was 0.399 µM in assay [1]; under 0.01 µM in assay [2]; 10.6 µM in [3]; 18.8 µM in [4]; under 0.01 µM in [5]; under 0.01 µM in [6]. Further, the GI50 in [7] is under 0.01 µM; in assay [8] it was 4.9 µM; in assay [9], under 0.01 µM; in assay [10], 0.138 µM. In addition, the TGI in assay [1] was over 100 µM; in assay [2], 0.0209 µM; in assay [3], 30.2 µM; in [4] it was over 100 µM; in [5], over 100 µM; in assay [6], over 100 µM. Besides, the TGI in assay [7], in assay [8], in assay [9] and in [10] was over 100 µM throughout.

Turning to `C/C(=N\O)C1CC(CC(=O)O)C1(C)C` (stereo not given), the TGI in assay [1], in [2], in [3], in assay [4], in assay [5] and in assay [6] was over 100 µM in each case. In addition, the TGI in [7], in [8], in assay [9] and in [10] was over 100 µM throughout.

Regarding `N#CC(Cl)CS(=O)(=O)c1ccccc1` (stereo not given), the TGI amounted to 5.38 µM in assay [1]; 9.59 µM in assay [2]; 4.54 µM in assay [3]; 33.5 µM in assay [4]; 44.7 µM in assay [5]; 4.85 µM in assay [6]. The TGI worked out at 31.6 µM in [7], 9.96 µM in assay [8], 26.5 µM in assay [9] and 35.3 µM in [10].

As for `C=C1CC[C@@](C)(c2cc(Br)c(C)cc2OC(C)=O)[C@H]1C`, the GI50 in assay [1] was 15.1 µM; in assay [2], 15.9 µM; in assay [3], 15.2 µM; in [4], 13.1 µM; in assay [5], 15.2 µM; in assay [6], 14 µM. Besides, the GI50 in assay [7] was 11.1 µM; in assay [8], 13.7 µM; in assay [9], 7.06 µM; in assay [10], 15.1 µM. In addition, the TGI was 31.3 µM in assay [1]; 30.6 µM in assay [2]; 30.5 µM in assay [3]; 30.5 µM in [4]; 29.7 µM in assay [5]; 30.2 µM in assay [6]. Further, the TGI in assay [7] is 24.2 µM; in [8], 27.3 µM; in assay [9], 20.1 µM; in assay [10], 28.7 µM.

On to `COc1cccc(N2C(=N)/C(=C3\Nc4ccccc4S3)CC2=O)c1`, for which the GI50 is 0.815 µM in [1]; over 100 µM in assay [2]; over 100 µM in assay [3]; 4.1 µM in assay [4]; 3.89 µM in assay [5]; 3.92 µM in assay [6]. Further, the GI50 in assay [7] was 3.03 µM; in assay [8], 4.93 µM; in [9] it was over 100 µM; in assay [10], over 100 µM. The TGI in assay [1], in assay [2], in assay [3], in assay [4], in assay [5] and in [6] was over 100 µM each time. Moreover, the TGI in [7], in assay [8], in assay [9] and in assay [10] was over 100 µM in each case.

With `Cc1ccc(/C=C(/C#N)n2nnc3cccc(F)c32)cc1`, the GI50 in [1] is 0.24 µM; in [2] it was 0.287 µM; in assay [3], 0.488 µM; in [4] it was 0.515 µM; in [5], 0.489 µM; in assay [6] it was 0.168 µM. The GI50 in [7] was 0.412 µM; in assay [8], 0.579 µM; in assay [9], 0.32 µM; in assay [10], 0.673 µM. In addition, the TGI in assay [1] was 8.69 µM; in assay [2], 22.1 µM; in assay [3], 17.6 µM; in assay [4], 11.7 µM; in assay [5], 14.4 µM; in assay [6], over 100 µM. In addition, the TGI in [7] was 14.6 µM; in [8], 4.46 µM; in [9], 11.1 µM; in assay [10], 9.12 µM.

As to `Cc1[nH]c(N)nc(=S)c1CCCNc1ccccc1`, the TGI in [1] was over 100 µM; in [2] it was over 100 µM; in assay [3], 99 µM; in [4] it was over 100 µM; in assay [5] it was over 100 µM; in assay [6], over 100 µM. The TGI in [7], in assay [8], in assay [9] and in [10] was over 100 µM each time.
